{"source": "patent EP1140110B1", "about": "“CLATHRATES OF DEHYDROEPIANDROSTERONE AND CORRESPONDING PHARMACEUTICAL COMPOSITIONS” (Euphar Group S.R.L., priority 1998, dated 2000)", "key": {"[1]": {"experiment": "Kinetics and metabolism of exogenous DHEA (100 mg single oral dose, young and elderly male subjects)", "type": "in vivo", "settings": "100 mg DHEA single oral dose", "protocol": "This first part of the experimentation was carried out with the purpose of verifying the kinetics and processes of sulfoconjugation and bioconversion of DHEA as such administered to male subjects. The said subjects were divided into two groups according to age: one group of 7 young subjects aged between 24 and 32, and one group of 10 elderly subjects, aged between 67 and 86. Each one of these subjects was administered 100 mg of DHEA in a single dose by oral route. At 0.5, 1, 2, 3, 4, 6, 9,12 and 24 hours from administration, the blood levels of DHEA, DHEA sulphate, total testosterone and 17-β-estradiol were determined. The evaluations were carried out using the parameter of the maximum delta (maximum peak reached, from which the basal values were subtracted) and the parameter of the area under the curve (triangulation system)."}, "[2]": {"settings": "general statement in prior art section; cited from earlier work"}}}
{"compound": "C[C@]12CC[C@H](O)CC1=CC[C@@H]1[C@@H]2CC[C@]2(C)C(=O)CC[C@@H]12", "note": "[DHEA, dehydroepiandrosterone]", "values": [{"measurement": "DHEA blood level response to administration, elderly versus young subjects", "setting": "[1]", "result": "significantly greater in the elderly subjects"}, {"measurement": "DHEA sulphate blood level response to administration, elderly versus young subjects", "setting": "[1]", "result": "significantly greater in the elderly subjects"}, {"measurement": "molar ratio between DHEA sulphate and DHEA in the response-to-administration curves, young versus elderly", "setting": "[1]", "result": "did not show any significant differences"}, {"measurement": "time of DHEA sulphate blood level peak from administration", "setting": "[1]; both groups (young and elderly)", "result": "approximately two"}, {"measurement": "blood levels of 17-β-estradiol versus placebo", "setting": "[1]; compared with the testosterone finding (evident only in elderly subjects)", "result": "the same phenomenon occurred"}, {"measurement": "difference in profile of the testosterone levels versus placebo", "setting": "[1]; elderly subjects, two-way ANOVA", "result": "statistically evident"}, {"measurement": "profile of the testosterone levels versus placebo", "setting": "[1]; young subjects", "result": "did not undergo any substantial differences"}, {"measurement": "solubility in water", "setting": "[2]", "result": "practically insoluble in water"}]}
